Measurements: publication PMC3673537 (Bioorganic & medicinal chemistry, 2011)
Marks after values point to notes of the source that are not given here.

Tests used:
Tcp = assay: Western blot against Tcp; type: cell-based, Vibrio cholerae; settings: Supplementary data
HapR = assay: Western blot against HapR; type: cell-based, Vibrio cholerae; settings: Supplementary data
CqsS [1] = molecular target: T1, CqsS (Vibrio cholerae serotype O1, UniProt Q9KM66); assay: Vibrio cholerae agonism bioassay; settings: for % Response at the maximum concentration (50 μM): bioluminescence at 50 μM, with respect to CAI-1 at 100%; for agonist activity (in words): V. cholerae MM920 reporter, up to 50 μM
T1 sequence (Q9KM66 whole entry, looked up): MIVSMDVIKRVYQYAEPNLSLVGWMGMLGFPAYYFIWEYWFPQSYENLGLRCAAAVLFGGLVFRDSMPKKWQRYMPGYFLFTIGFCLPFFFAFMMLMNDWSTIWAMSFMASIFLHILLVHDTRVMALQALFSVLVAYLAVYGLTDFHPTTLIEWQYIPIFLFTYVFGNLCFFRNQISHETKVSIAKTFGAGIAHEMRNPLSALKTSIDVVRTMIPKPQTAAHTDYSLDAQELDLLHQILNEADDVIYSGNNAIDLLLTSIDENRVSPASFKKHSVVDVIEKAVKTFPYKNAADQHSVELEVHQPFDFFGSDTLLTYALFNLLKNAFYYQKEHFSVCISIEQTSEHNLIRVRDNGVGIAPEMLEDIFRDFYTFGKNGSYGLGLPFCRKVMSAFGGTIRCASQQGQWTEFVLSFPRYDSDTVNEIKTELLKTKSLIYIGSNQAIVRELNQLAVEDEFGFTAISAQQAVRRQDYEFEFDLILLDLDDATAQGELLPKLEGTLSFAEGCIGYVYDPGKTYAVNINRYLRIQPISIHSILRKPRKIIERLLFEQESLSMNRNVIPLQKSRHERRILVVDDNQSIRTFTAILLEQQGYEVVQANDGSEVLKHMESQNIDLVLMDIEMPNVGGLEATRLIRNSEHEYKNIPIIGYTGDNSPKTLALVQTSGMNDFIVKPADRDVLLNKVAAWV

CqsS [2] = molecular target: T1, CqsS; assay: Vibrio cholerae antagonism bioassay; settings: for antagonist activity (in words): V. cholerae MM920 reporter with 1.0 μM CAI-1, up to 512 μM; for Ratio: IC50 (analog)/IC50 (Ph-CAI-1): using the IC50 of Ph-CAI-1 determined on the same day

| Structure (SMILES) | agonist activity (in words) (CqsS [1]) | antagonist activity (in words) (CqsS [2]) | further results |
| --- | --- | --- | --- |
| CCCCCCCCCC(=O)[C@@H](O)CC [Compound 1, (S)-3-hydroxytridecan-4-one] |  |  | expression of Tcp (Tcp): significant reduction; expression of HapR (HapR): concomitant expression |
| CCCCCC(=O)[C@@H](O)CC [Compound A1, (S)-3-Hydroxynonan-4-one] |  |  | % Response at the maximum concentration (50 μM) (CqsS [1]): 27 ^e % |
| CCCCCCC(=O)[C@@H](O)CC [Compound A2, (S)-3-Hydroxydecan-4-one] | essentially inactive |  | % Response at the maximum concentration (50 μM) (CqsS [1]): 59 ^e % |
| CCCCCCCCCCCCC(=O)[C@@H](O)CC [Compound A9, (S)-3-Hydroxyhexadecan-4-one] | essentially inactive |  |  |
| CCCCCCCCCC(=O)C(Cl)CC (stereo not shown) [Compound B8, Cl-CAI-1] | inactive |  |  |
| CCCCCCCCCC(=O)C(O)C(C)(C)C (stereo not shown) [Compound C4, 3-Hydroxy-2,2-dimethyltridecan-4-one] | inactive |  |  |
| CCCCCCCCCC(=O)C(O)c1ccc(C)c(C)c1 (stereo not shown) [Compound C9, 1-Hydroxy-1-(3,4-dimethylphenyl)undecan-2-one] |  | abolishes activity |  |
| CCCCCCCCCC(=O)C(O)c1ccc(CC)cc1 (stereo not shown) [Compound C10, 1-(4-Ethylphenyl)-1-hydroxyundecan-2-one] |  | inactive | IC50 (CqsS [2]): > 500 µM; Ratio: IC50 (analog)/IC50 (Ph-CAI-1) (CqsS [2]): >9 |
| CCCCCCCCCC(=O)C(O)c1ccc(CCC)cc1 (stereo not shown) [Compound C11, 1-Hydroxy-1-(4-propylphenyl)-undecan-2-one] |  | inactive | IC50 (CqsS [2]): > 500 µM; Ratio: IC50 (analog)/IC50 (Ph-CAI-1) (CqsS [2]): >9 |
| CCCCCCCCCC(=O)C(O)c1ccc(Br)cc1 (stereo not shown) [Compound C28, 1-(4-Bromophenyl)-1-hydroxyundecan-2-one] |  | weak antagonist |  |
